Consider 25 molecules from publication PMC6273152, “Design, Synthesis, and Biological Evaluation of Novel PARP-1 Inhibitors Based on a 1H-Thieno[3,4-d] Imidazole-4-Carboxamide Scaffold” (Molecules, 2016).

Series [1] addresses T1, PARP-1 enzyme (Homo sapiens, UniProt P09874).
T1 construct: purchased Trevigen 4690-096-K
In words: PARP-1 enzymatic inhibition assay (Trevigen 96-well kit, fluorescence). Format: biochemical. The conditions noted are these: logit method, six concentrations, read-out: IC50 (PARP-1 enzyme inhibitory activity). On the procedure:
All target compounds were evaluated in vitro for their PARP-1 enzyme inhibitory activity.
The procedure was according to the instructions provided by the manufacturer. […] 25 μL of 1 × Buffer was added to each well and 25 μL of appropriate 2 × NAD^+ standards were added to 1B to 1G and 2B to 2G well of 96-well plate for standard curve. 25 μL of 2 μM NAD was added to 1H and 2H for PARP control. 25 μL of 2 μM NAD was added to wells for test compounds, then serially diluted compounds were added, and 1 μL of DMSO was added to the standard well. 25 μL of PARP Mix minus enzyme was added to 1A to 1G and 25 μL of PARP Mix plus enzyme was added to PARP control and compounds well. […] Then 50 μL stop solution was added to each well, and mixed with pipette. […] Then draw the standard curve and calculate the inhibition rate of each test compound.

Series [2] is described as follows: in vitro. The conditions noted are these: human, normal human lung fibroblast (HLF) cells.
Method: (§1) The cytotoxic potencies of test compounds were determined on normal human lung fibroblast (HLF) cells. Cells were seeded into 96-well plate at 3000 cells/well. The stock solutions of test compounds were dissolved in DMSO and serially diluted to the required concentrations for 7 doses, and the final testing concentrations for these compounds were 0.3, 1, 3, 10, 30, 100, 300 µM. […] The fraction of surviving cells after compound treatment was determined using the MTT assay.
The subject of series [3] is normal human lung fibroblast (HLF) cells. Description: Cytotoxicity assay (MTT) on normal human lung fibroblast cells. The note with it: 72 h.
Method: as §1
Series [4] deals with CAPAN-1 (BRCA2-deficient) cells. In words: CellTiter Glo assay for cell growth inhibition, CAPAN-1. The note with it: CAPAN-1, 96 h, read-out: IC50 (BRCA-2, CAPAN-1). For orientation: Cellular ATP, detected with luciferase, serves as a proxy for viable cell number.
Method: (§2) The growth inhibition potential of test compounds was determined on BRCA1-deficient cell lines HCC1937 and BRCA2-deficient cell lines CAPAN-1. The stock solutions of test compounds were dissolved in DMSO and serially diluted to the required concentrations for 9 doses. […] 60 μL medium was removed from each well and plates were kept at room temperature for 30 min. 60 μL reagent (Celltiter Glo assay kit, Promega, Sunnyvale, CA, USA) per well was added and plates were shaked for 2 min. Cells were incubated avoiding light at room temperature for 30 min and the luminescence value was recorded by multiplate reader. GraphPad Prism 5 was used to plot effect-dose curves and calculate the IC50 values of compounds.
Series [5] deals with HCC1937 (BRCA1-deficient) cells. In words: CellTiter Glo assay for cell growth inhibition, HCC1937. The conditions noted are these: HCC1937, 96 h, read-out: IC50 (BRCA-1, HCC1937).
Method: as §2
Where [6] appears, read: CellTiter Glo, nine concentrations.

Like-named read-outs stand apart in the source and are kept apart here.

T1 sequence (P09874 whole entry): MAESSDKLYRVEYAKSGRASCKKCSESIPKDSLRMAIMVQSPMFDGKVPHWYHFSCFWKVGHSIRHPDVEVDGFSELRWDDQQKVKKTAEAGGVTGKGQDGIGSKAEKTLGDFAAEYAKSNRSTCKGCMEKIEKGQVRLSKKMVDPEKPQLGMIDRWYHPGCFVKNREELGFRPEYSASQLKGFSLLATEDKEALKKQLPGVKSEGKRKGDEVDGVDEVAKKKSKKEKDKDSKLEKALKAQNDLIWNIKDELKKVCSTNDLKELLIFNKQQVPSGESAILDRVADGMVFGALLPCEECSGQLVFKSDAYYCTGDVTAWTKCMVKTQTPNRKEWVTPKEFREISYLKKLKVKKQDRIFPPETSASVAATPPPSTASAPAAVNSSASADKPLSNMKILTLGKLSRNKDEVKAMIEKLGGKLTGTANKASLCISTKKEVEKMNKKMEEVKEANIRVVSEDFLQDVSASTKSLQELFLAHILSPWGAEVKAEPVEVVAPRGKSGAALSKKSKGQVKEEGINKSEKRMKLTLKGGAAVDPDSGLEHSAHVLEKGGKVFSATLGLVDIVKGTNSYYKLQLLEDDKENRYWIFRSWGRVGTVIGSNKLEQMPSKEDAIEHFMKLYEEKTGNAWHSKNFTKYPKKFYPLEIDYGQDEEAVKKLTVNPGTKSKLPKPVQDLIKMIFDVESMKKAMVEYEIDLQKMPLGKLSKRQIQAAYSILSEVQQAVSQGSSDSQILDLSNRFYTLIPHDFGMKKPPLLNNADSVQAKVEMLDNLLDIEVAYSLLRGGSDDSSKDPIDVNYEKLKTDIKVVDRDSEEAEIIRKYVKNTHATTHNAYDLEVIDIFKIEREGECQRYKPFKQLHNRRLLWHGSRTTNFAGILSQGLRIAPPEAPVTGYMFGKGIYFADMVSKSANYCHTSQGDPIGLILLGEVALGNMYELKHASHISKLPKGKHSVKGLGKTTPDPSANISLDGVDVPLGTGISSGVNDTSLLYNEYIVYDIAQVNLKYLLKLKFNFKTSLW

Regarding `NC(=O)c1scc2[nH]c(-c3ccc(C(=O)N4CCNCC4)cc3)nc12` [Compound 12, 2-(4-(Piperazine-1-carbonyl)phenyl)-1H-thieno[3,4-d]imidazole-4-carboxamide], the IC50 (usually the concentration that gives 50% inhibition) in series [1] (Table 1 series (12, 13a–j)) is 0.723 µM.

For the molecule `NC(=O)c1scc2[nH]c(-c3ccc(C(=O)N4CCN(C(=O)c5cccs5)CC4)cc3)nc12` [Compound 13a, 2-(4-(4-(Thiophene-2-carbonyl)piperazine-1-carbonyl)phenyl)-1H-thieno[3,4-d]imidazole-4-carboxamide], the IC50 in series [1] (Table 1 series (12, 13a–j)) was determined as 2.57 µM.

In the case of `NC(=O)c1scc2[nH]c(-c3ccc(C(=O)N4CCN(C(=O)c5ccccc5)CC4)cc3)nc12` [Compound 13b, 2-(4-(4-Benzoylpiperazine-1-carbonyl)phenyl)-1H-thieno[3,4-d]imidazole-4-carboxamide], the melting point (as a rule, the temperature of the solid-liquid transition) lay in the range of 270 to 272 °C. For the same molecule, the IC50 in series [1] (Table 1 series (12, 13a–j)) amounted to 3.76 µM.

The molecule `NC(=O)c1scc2[nH]c(-c3ccc(C(=O)N4CCN(C(=O)c5ccc(Br)cc5)CC4)cc3)nc12` [Compound 13c, 2-(4-(4-(4-Bromobenzoyl)piperazine-1-carbonyl)phenyl)-1H-thieno[3,4-d]imidazole-4-carboxamide] showed a melting point of 294 to 296 °C. In addition, the IC50 in series [1] (Table 1 series (12, 13a–j)) was found to be 1.87 µM.

Molecule `NC(=O)c1scc2[nH]c(-c3ccc(C(=O)N4CCN(C(=O)c5ccc(Cl)cc5)CC4)cc3)nc12` [Compound 13d, 2-(4-(4-(4-Chlorobenzoyl)piperazine-1-carbonyl)phenyl)-1H-thieno[3,4-d]imidazole-4-carboxamide] yielded a melting point of 247 to 249 °C.

For `Cc1ccc(C(=O)N2CCN(C(=O)c3ccc(-c4nc5c(C(N)=O)scc5[nH]4)cc3)CC2)cc1` [Compound 13e, 2-(4-(4-(4-Methylbenzoyl)piperazine-1-carbonyl)phenyl)-1H-thieno[3,4-d]imidazole-4-carboxamide], the melting point was 308 to 310 °C.

As for `NC(=O)c1scc2[nH]c(-c3ccc(C(=O)N4CCN(Cc5ccccc5)CC4)cc3)nc12` [Compound 13f, 2-(4-(4-Benzylpiperazine-1-carbonyl)phenyl)-1H-thieno[3,4-d]imidazole-4-carboxamide], the IC50 in series [1] (Table 1 series (12, 13a–j)) came out at 3.86 µM.

Take `NC(=O)c1scc2[nH]c(-c3ccc(C(=O)N4CCN(Cc5ccc(Br)cc5)CC4)cc3)nc12` [Compound 13g, 2-(4-(4-(4-Bromobenzyl)piperazine-1-carbonyl)phenyl)-1H-thieno[3,4-d]imidazole-4-carboxamide]: the melting point was 285 to 288 °C.

For the molecule `N#Cc1ccc(CN2CCN(C(=O)c3ccc(-c4nc5c(C(N)=O)scc5[nH]4)cc3)CC2)cc1` [Compound 13h, 2-(4-(4-(4-Cyanobenzyl)piperazine-1-carbonyl)phenyl)-1H-thieno[3,4-d]imidazole-4-carboxamide], the melting point fell in the range of 284 to 286 °C. In addition, the IC50 in series [1] (Table 1 series (12, 13a–j)) was determined as 3.72 µM.

`Cc1ccc(CN2CCN(C(=O)c3ccc(-c4nc5c(C(N)=O)scc5[nH]4)cc3)CC2)cc1` [Compound 13i, 2-(4-(4-(4-Methylbenzyl)piperazine-1-carbonyl)phenyl)-1H-thieno[3,4-d]imidazole-4-carboxamide] gave a melting point of 272 to 273 °C.

`NC(=O)c1scc2[nH]c(-c3ccc(C(=O)N4CCN(C(=O)C5CC5)CC4)cc3)nc12` [Compound 13j, 2-(4-(4-(Cyclopropanecarbonyl)piperazine-1-carbonyl)phenyl)-1H-thieno[3,4-d]imidazole-4-carboxamide] gave a melting point of 272 to 273 °C. The IC50 in series [1] (Table 1 series (12, 13a–j)) was determined as 1.53 µM.

As to `NC(=O)c1scc2[nH]c(-c3ccccc3)nc12` [Compound 16a, 2-Phenyl-1H-thieno[3,4-d]imidazole-4-carboxamide], the melting point lay in the range of 256 to 257 °C. The IC50 in series [1] (Table 2 series (16a–n)) is 0.827 µM.

In turn, `NC(=O)c1scc2[nH]c(-c3ccc(F)cc3)nc12` [Compound 16b, 2-(4-Fluorophenyl)-1H-thieno[3,4-d]imidazole-4-carboxamide] yielded a melting point of 244 to 246 °C. For the same molecule, the IC50 in series [1] (Table 2 series (16a–n)) was 0.738 µM.

`NC(=O)c1scc2[nH]c(-c3ccc(Cl)cc3)nc12` [Compound 16c, 2-(4-Chlorophenyl)-1H-thieno[3,4-d]imidazole-4-carboxamide] showed a melting point of 245 to 246 °C. The 50% inhibitory concentration (IC50) in series [1] (Table 2 series (16a–n)) amounted to 0.354 µM.

`NC(=O)c1scc2[nH]c(-c3ccccc3Cl)nc12` [Compound 16d, 2-(2-Chlorophenyl)-1H-thieno[3,4-d]imidazole-4-carboxamide] displayed a melting point of 202 to 204 °C. Further, the IC50 in series [1] (Table 2 series (16a–n)) amounted to 1.49 µM.

Molecule `NC(=O)c1scc2[nH]c(-c3c(Cl)cccc3Cl)nc12` [Compound 16e, 2-(2,6-Dichlorophenyl)-1H-thieno[3,4-d]imidazole-4-carboxamide] had a melting point of 210 to 212 °C.

`NC(=O)c1scc2[nH]c(-c3ccc(C(F)(F)F)cc3)nc12` [Compound 16f, 2-(4-(Trifluoromethyl)phenyl)-1H-thieno[3,4-d]imidazole-4-carboxamide]: the melting point is 283 to 285 °C. Besides, in series [1] (Table 2 series (16a–n)), the IC50 came out at 0.548 µM.

In series [2], `NC(=O)c1scc2[nH]c(-c3cccc(C(F)(F)F)c3)nc12` [Compound 16g, 2-(3-(Trifluoromethyl)phenyl)-1H-thieno[3,4-d]imidazole-4-carboxamide] gave an IC50 at 72 h of 77.6 ± 1.5 µM. Further, the “Inhibition Rate” value is −1.65% in series [3] (0.3 µM); −1.02% in series [3] (1 µM); −0.63% in series [3] (3 µM); 0.76% in series [3] (10 µM); 4.13% in series [3] (30 µM); 69.88% in series [3] (100 µM). The “Inhibition Rate” value in series [3] (300 µM) was 99.40%. The half-inhibitory concentration (IC50) in series [1] (Table 2 series (16a–n)) worked out at 0.151 µM; in series [4] (Homo sapiens) it was 38.6 ± 6.75 µM; in series [5] (Homo sapiens), 31.3 ± 0.35 µM.

In turn, `NC(=O)c1scc2[nH]c(-c3ccccc3C(F)(F)F)nc12` [Compound 16h, 2-(2-(Trifluoromethyl)phenyl)-1H-thieno[3,4-d]imidazole-4-carboxamide] yielded a melting point of 241 to 243 °C.

On to `NC(=O)c1scc2[nH]c(-c3ccc([N+](=O)[O-])cc3)nc12` [Compound 16i, 2-(4-Nitrophenyl)-1H-thieno[3,4-d]imidazole-4-carboxamide], for which the IC50 at 72 h in series [2] turned out to be 94.1 ± 2.2 µM. Besides, the “Inhibition Rate” value in series [3] (0.3 µM) is −0.05%; in series [3] (1 µM), 1.33%; in series [3] (3 µM), 0.99%; in series [3] (10 µM), 3.37%; in series [3] (30 µM), 2.56%; in series [3] (100 µM) it was 55.26%. Besides, in series [3] (300 µM), the “Inhibition Rate” value was determined as 99.63%. Moreover, the IC50 was determined as 0.136 µM in series [1] (Table 2 series (16a–n)), 26.8 ± 1.55 µM in series [4] (Homo sapiens) and 32.9 ± 4.21 µM in series [5] (Homo sapiens).

`COc1cccc(-c2nc3c(C(N)=O)scc3[nH]2)c1` [Compound 16k, 2-(3-Methoxyphenyl)-1H-thieno[3,4-d]imidazole-4-carboxamide] showed a melting point of 230 to 242 °C. Besides, in series [1] (Table 2 series (16a–n)), the IC50 is 1.49 µM.

As to `Cc1cccc(-c2nc3c(C(N)=O)scc3[nH]2)c1` [Compound 16m, 2-(m-Tolyl)-1H-thieno[3,4-d]imidazole-4-carboxamide], the melting point was 254 to 255 °C. The half-maximal inhibitory concentration (IC50) in series [1] (Table 2 series (16a–n)) worked out at 5.79 µM.

Molecule `Cc1ccccc1-c1nc2c(C(N)=O)scc2[nH]1` [Compound 16n, 2-(o-Tolyl)-1H-thieno[3,4-d]imidazole-4-carboxamide] registered a melting point of 222 to 223 °C. Also, in series [1] (Table 2 series (16a–n)), the IC50 was found to be 0.328 µM.

In turn, `O=C(c1cc(Cc2n[nH]c(=O)c3ccccc23)ccc1F)N1CCN(C(=O)C2CC2)CC1` [Olaparib, olaparib, reference compound] came in with an IC50 at 72 h in series [2] of 134 ± 3.14 µM. The “Inhibition Rate” value turned out to be 1.88% in series [3] (0.3 µM); 1.83% in series [3] (1 µM); 1.10% in series [3] (3 µM); 1.37% in series [3] (10 µM); 1.04% in series [3] (30 µM); 29.60% in series [3] (100 µM). In addition, the “Inhibition Rate” value in series [3] (300 µM) was determined as 91.45%. The 50% inhibitory concentration (IC50) in series [4] (Homo sapiens) turned out to be 13.4 ± 1.16 µM; in series [5] (Homo sapiens) it was 133 ± 14.4 µM.

As to `C[C@]1(c2nc3c(C(N)=O)cccc3[nH]2)CCCN1` [Veliparib, veliparib, reference compound], the half-maximal inhibitory concentration (IC50) at 72 h in series [2] is approximately 200 µM. Besides, the “Inhibition Rate” value in series [3] (0.3 µM) is 1.00%; in series [3] (1 µM), −0.28%; in series [3] (3 µM), −1.20%; in series [3] (10 µM) it was −1.35%; in series [3] (30 µM), −0.06%; in series [3] (100 µM), −0.45%. Besides, the “Inhibition Rate” value in series [3] (300 µM) worked out at 93.64%. Besides, the IC50 in series [4] (setting [6]) was 57.7 ± 12.4 µM; in series [5] (setting [6]), 127 ± 18.1 µM.
